Biological target: T1, ASC (Homo sapiens, UniProt Q96P20+Q9ULZ3)
T1 construct: gene PYCARD; FLAG-ASC-PYD (N-terminal FLAG-tagged pyrin domain of ASC); with NLRP3 (NLRP3-FL-Btn, C-terminal biotinylated full-length)
Assay: ALPHA-screen protein-protein interaction inhibition, wheat germ cell-free synthesized proteins
Type: binding
Text: ALPHA-screen protein-protein interaction inhibition, wheat germ cell-free synthesized proteins on ASC | The interaction between NLRP3-FL-Btn and FLAG-ASC-PYD was disrupted by both KN3014 and KN8311 in a dose-dependent manner.

T1 sequence (Q9ULZ3 1-91 limits assumed): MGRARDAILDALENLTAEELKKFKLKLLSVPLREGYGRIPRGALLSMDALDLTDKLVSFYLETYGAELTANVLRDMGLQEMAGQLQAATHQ
T1 sequence (Q96P20 whole entry, the tested form may be a part): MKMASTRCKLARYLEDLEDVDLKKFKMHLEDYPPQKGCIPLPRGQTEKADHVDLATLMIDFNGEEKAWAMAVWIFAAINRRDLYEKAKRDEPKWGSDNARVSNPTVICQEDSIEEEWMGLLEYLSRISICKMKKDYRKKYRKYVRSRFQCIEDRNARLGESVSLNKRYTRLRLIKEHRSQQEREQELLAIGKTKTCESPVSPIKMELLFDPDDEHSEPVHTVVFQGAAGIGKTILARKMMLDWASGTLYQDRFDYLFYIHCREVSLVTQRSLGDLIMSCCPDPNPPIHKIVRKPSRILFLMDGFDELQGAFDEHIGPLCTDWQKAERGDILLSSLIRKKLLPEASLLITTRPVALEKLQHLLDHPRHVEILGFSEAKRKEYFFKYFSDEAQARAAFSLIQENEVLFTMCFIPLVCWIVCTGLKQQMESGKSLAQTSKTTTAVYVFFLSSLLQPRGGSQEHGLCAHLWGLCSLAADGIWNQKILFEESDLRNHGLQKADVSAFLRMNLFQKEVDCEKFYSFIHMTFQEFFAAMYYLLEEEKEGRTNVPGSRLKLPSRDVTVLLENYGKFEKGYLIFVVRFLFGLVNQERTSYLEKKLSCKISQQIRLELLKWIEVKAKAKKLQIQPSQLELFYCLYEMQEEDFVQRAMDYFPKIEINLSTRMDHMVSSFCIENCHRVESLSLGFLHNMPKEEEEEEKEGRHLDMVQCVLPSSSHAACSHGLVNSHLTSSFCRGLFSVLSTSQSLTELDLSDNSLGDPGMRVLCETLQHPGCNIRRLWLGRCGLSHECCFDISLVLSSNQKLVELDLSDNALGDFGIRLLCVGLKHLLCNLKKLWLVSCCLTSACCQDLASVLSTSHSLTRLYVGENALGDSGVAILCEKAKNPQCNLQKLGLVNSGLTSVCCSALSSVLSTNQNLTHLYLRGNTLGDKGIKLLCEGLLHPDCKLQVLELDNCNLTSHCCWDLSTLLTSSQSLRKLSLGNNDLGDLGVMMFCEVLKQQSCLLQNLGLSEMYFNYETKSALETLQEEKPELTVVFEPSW

`Cc1ccccc1OCC(=O)NCC(c1ccc2c(c1)CCCN2C)N1CCCCC1` (stereo not shown) [KN3014, N-(2-(1-methyl-1,2,3,4-tetrahydroquinolin-6-yl)-2-(piperidin-1-yl)ethyl)-2-(o-tolyloxy)acetamide] gave an IC50 of 14.6 µM.
